Results as given in patent US20240010726A1, “LFA-1 SIGNALLING MEDIATOR FOR USE IN CANCER THERAPY” (Universität Basel, priority 2020, published 2024).

Tests used:
[1] = tested on: anti-PSMA CAR T cells co-cultured with PC3-PIP; assay: Cytokine release assay of anti-PSMA CAR T cells (IFNγ ELISA); assay type: cell-based, human; conditions: 24 h; 0 mM vs 0.6 mM Mg^2+
Description: FIG. 3: Magnesium regulates LFA-1 mediated T cell activation and cytotoxicity as well BiTE- and CAR T-cell functionality. (a) Glycolytic switch of murine WT and LFA-1^−/− CTLs upon injection of anti-CD3/28 Ab in medium containing 1.2 mM Mg^2+ and 0 mM Mg^2+, presented as quantification of summarized data with n=4 mice. (b) Calcium flux in WT and LFA-1^−/− Jurkat T cells stimulated with anti-CD3 Ab in 1.2 mM and 0 mM Mg^2+ medium, respectively. Cells were loaded with Fluo4, and signal intensity as recorded by plate reader, was normalized to unstimulated baseline values. […] Quantified results of n=3 mice with 3 technical replicates each. […] The effector to target cell ratio was 3:1. Results are quantified of n=3 mice with 3 technical replicates each. (e) Representative CD11a (LFA-1) surface expression on human naïve and EM CD8 T cells, PHA T cell blasts and REP T cells, assessed by flow cytometry. […] The effector to target cell ratio was 1:1. Data is presented as quantified results of n=5 healthy donors (f, g, h), n=3 healthy donors with 2 technical replicates each or n=1 healthy donor with 4 technical replicates (j). […] Data is presented as quantified results of n=1 healthy donor with 4 technical replicates. […] (p) Abundance of IFNγ in cell culture supernatants corresponding to the conditions depicted in (o) at 24 hours was determined by ELISA (n=8, 3 independent experiments). […]

[2] = tested on: luciferase-expressing EL4 target cells; assay: Cytotoxicity assay of WT and LFA-1−/− OT1 CTLs with luciferase-expressing EL4 target cells; assay type: cell-based, murine; conditions: EL4 pulsed with altered OVA peptides (G4, H7, R7) at 10^−6 M; 4 h; E:T 3:1; 1.2 mM or 0 mM Mg^2+
Description: FIG. 4: Magnesium regulates LFA-1 mediated T cell activation and cytotoxicity within physiologic range • (a) Metabolic flux analysis of human EM CD8 T cells upon supra-physiologic activation with anti-CD3 and anti-CD28 Ab, and additional injection of secondary, cross-linking anti-CD3/28 Ab, in medium containing 1.2 mM Mg^2+, 0 mM Mg^2+, or medium which was reconstituted to 1.2 mM Mg^2+ immediately prior to activation (0→1.2 mM Mg^2+). Pooled results from n=6 healthy donors from 3 independent experiments. (b) CD69 expression of PHA T cell blasts upon activation with indicated concentrations of plate-bound anti-CD3 mAb in ±Mg^2+ containing medium. […] Cytotoxicity was quantified after adding luciferin to medium and measuring luminescent signal intensity. […] Cytotoxicity was quantified after adding luciferin to medium and measuring luminescent signal intensity. […]
OT-I derived CTLs were stimulated with OVA257-264 peptide ([…], Eurogentec) or the altered peptide ligands R7 ([…], Eurogentec), H7 ([…], Eurogentec) or G4 ([…], Eurogentec) at 10 μM for 4 h. […] Cytotoxicity was either evaluated with fluorogenic caspase-3 substrate (as described above) or luciferase-expressing EL4 target cells. Cytotoxicity was quantified after adding luciferin at 0.15 mg ml^−1 (PerkinElmer) to medium and measuring luminescent signal intensity by plate reader (Synergy H1, BioTek).

[Mg+2] [Mg^2+, Magnesium]
IFNγ release [1]: reduced inflammatory IFNγ release | Specific target cell lysis by OT1 CTLs [2]: confirmed across a spectrum of TCR affinities
